# Measurements taken from US20250360145A1, “CSF-1R INHIBITORS AND USES THEREOF” (Myrobalan Therapeutics, Inc., priority 2022, published 2025).
# Like-named read-outs stand apart in the source and are kept apart here.
# Key:
# [1] = target: c-Kit (Homo sapiens (Human), UniProt P10721); assay: Biochemical HTRF kinase assay, c-Kit; settings: for IC50: recombinant human protein, read-out: cKit IC50; for cKit Fold: selectivity: IC50 of cKit as multiple of IC50 of CSF-1R;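 for all read-outs here: enzyme reaction with substrate and ATP run in 384-well plates for 1 hour at room temperature, kinase activity detected by HTRF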
# Sequence of c-Kit (P10721 26-976): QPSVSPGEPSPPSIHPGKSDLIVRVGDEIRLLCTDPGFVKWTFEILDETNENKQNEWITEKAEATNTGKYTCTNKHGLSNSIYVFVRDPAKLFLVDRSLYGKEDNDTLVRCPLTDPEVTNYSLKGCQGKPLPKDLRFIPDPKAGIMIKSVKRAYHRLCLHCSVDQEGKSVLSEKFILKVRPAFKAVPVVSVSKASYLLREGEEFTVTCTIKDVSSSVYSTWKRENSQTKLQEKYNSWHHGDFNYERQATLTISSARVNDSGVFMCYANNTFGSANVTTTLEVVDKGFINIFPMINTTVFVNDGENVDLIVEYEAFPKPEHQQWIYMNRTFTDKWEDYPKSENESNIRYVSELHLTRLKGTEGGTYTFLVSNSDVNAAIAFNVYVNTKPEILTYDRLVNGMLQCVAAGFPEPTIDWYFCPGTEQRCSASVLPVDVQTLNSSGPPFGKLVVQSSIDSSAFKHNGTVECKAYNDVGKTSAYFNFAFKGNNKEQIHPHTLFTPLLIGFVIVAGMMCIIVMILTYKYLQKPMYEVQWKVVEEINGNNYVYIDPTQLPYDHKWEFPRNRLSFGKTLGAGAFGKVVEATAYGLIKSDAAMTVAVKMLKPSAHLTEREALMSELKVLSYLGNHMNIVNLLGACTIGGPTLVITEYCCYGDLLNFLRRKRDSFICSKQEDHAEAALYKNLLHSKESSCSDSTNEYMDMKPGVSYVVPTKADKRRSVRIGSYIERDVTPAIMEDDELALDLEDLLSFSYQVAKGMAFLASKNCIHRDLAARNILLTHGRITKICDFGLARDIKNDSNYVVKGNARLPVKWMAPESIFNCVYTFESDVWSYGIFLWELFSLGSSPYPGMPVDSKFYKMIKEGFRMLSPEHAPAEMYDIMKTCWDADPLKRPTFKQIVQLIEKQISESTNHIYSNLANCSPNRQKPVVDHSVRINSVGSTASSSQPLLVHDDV
# [2] = target: CSF-1R (Homo sapiens (Human), UniProt P07333); assay: Biochemical HTRF kinase assay, CSF-1R; settings: recombinant human CSF-1R;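 note: enzyme incubated with inhibitor plus a substrate and ATP mix for one hour at room temperature before HTRF detection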
# Sequence of CSF-1R (P07333 20-972): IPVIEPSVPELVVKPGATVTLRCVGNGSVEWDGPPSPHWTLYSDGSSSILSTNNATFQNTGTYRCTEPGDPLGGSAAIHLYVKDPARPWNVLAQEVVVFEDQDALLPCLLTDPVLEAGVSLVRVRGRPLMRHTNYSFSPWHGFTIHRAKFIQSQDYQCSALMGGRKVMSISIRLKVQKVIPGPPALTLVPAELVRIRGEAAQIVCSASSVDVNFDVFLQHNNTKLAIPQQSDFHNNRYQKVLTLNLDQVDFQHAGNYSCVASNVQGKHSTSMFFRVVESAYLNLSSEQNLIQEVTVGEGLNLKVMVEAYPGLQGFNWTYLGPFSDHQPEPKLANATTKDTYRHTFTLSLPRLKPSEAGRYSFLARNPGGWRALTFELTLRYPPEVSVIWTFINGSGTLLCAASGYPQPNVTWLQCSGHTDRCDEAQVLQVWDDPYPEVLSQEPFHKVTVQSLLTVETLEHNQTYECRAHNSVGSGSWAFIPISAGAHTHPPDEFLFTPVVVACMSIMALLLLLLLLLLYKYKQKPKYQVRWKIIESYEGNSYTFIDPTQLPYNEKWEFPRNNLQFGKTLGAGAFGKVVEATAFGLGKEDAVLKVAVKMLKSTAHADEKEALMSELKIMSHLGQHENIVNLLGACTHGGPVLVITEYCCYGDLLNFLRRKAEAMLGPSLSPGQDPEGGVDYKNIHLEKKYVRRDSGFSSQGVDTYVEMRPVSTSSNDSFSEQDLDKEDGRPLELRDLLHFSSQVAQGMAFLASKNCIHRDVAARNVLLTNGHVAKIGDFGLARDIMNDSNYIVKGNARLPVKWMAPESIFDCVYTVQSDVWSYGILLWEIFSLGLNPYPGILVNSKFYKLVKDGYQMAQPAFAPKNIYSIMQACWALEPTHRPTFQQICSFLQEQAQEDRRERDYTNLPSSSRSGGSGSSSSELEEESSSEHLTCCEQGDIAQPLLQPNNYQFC
# [3] = test system: EOC2 cell; assay: Cell proliferation assay, EOC2; type: cell-based, mouse; settings: Mus musculus, 72 h
# [4] = test system: primary rat microglia; assay: Primary rat microglia survival; type: cell-based; settings: 3 days of exposure, Iba1 staining
# Description: To assess the potency of CSF1R inhibitors disclosed herein we isolated and expanded primary brain glia from rat cortices in-vitro. This glial culture is about 20% microglia that is supported mostly by astrocytes that make up the rest of the population. The brain glia was exposed to CSF1R inhibitors for 3 days followed by paraformaldehyde fixation and immunofluorescence staining for the microglia marker, Iba1. The glial was imaged using a high-content-imager and the changes in microglia content were quantified. Using GraphPad Prism, a four-parameter logistic regression was applied to determine the potency of the CSF1R inhibitors.
# [5] = Plasma protein binding study; type: in vitro ADME; settings: mouse plasma, equilibrium dialysis 4 hours; read-out: PPB-mouse (Bound) (%) (converted)
# Experimental: On the day of experiment, the plasma was thawed under running cold tap water and centrifuged at 3220×g for 5 min to remove any clots. The pH value was checked and recorded. Only plasma within range of pH 7.0 to pH 8.0 was used. Pretreat the dialysis membrane according to the manufacturer's instructions: the dialysis membrane strips were soaked in ultra pure water at room temperature for approximately 1 hr. After that, each membrane strip that contains 2 membranes was separated and soaked in ethanol:water (20:80 v:v) for approximately 20 min, after which it was ready for use or was stored in the solution at 2-8° C. for up to 1 month. Prior to the experiment, the membrane was rinsed and soaked for 20 min in ultra pure water for use. Working solutions (400 μM) of test compound and control compound were prepared. Aliquots of working solutions (3 μL) were spiked into blank matrix (597 μL) to achieve final concentrations and mixed thoroughly. Aliquots of 50 μL loading matrix containing test compound or control compound in triplicate was transferred to Sample Collection Plate, respectively. The samples were matched with opposite blank buffer to obtain a final volume of 100 μL with a volume ratio of matrix:Dialysis Buffer (1:1, v:v) in each well immediately. The stop solution was added to these T0 samples of test compound and control compound. The plate was sealed and shaked at 800 rpm for 10 min. Then these T0 samples were stored at 2-8° C. pending further process along with other post-dialysis samples. The dialysis instrument was assembled following manufacture's instructions. An aliquot of 100 μL of the loading matrix containing test compound or control compound was transferred to the donor side of each dialysis well in triplicate and 100 μL of the Dialysis Buffer was loaded to the receiver side of the well. Then the plate was rotated at approximately 100 rpm in a humidified incubator with 5% CO2 at 37±1° C. for 4 hours. At the end of the dialysis, aliquots of 50 μL samples from the buffer side and matrix side of the dialysis device were taken into new 96-well plates (Sample Collection Plates). An equal volume of opposite blank matrix (buffer or matrix) in each sample was added to reach a final volume of 100 μL with volume ratio of matrix:Dialysis Buffer at 1:1 (v:v) in each well. All samples were further processed by protein precipitation for LC/MS/MS analysis.
# [6] = target: FLT3 (Homo sapiens (Human), UniProt P36888); assay: Biochemical HTRF kinase assay, FLT3; settings: for IC50: recombinant human protein; for FLT3 Fold: selectivity: IC50 of FLT3 as multiple of IC50 of CSF-1R
# Sequence of FLT3 (P36888 27-993): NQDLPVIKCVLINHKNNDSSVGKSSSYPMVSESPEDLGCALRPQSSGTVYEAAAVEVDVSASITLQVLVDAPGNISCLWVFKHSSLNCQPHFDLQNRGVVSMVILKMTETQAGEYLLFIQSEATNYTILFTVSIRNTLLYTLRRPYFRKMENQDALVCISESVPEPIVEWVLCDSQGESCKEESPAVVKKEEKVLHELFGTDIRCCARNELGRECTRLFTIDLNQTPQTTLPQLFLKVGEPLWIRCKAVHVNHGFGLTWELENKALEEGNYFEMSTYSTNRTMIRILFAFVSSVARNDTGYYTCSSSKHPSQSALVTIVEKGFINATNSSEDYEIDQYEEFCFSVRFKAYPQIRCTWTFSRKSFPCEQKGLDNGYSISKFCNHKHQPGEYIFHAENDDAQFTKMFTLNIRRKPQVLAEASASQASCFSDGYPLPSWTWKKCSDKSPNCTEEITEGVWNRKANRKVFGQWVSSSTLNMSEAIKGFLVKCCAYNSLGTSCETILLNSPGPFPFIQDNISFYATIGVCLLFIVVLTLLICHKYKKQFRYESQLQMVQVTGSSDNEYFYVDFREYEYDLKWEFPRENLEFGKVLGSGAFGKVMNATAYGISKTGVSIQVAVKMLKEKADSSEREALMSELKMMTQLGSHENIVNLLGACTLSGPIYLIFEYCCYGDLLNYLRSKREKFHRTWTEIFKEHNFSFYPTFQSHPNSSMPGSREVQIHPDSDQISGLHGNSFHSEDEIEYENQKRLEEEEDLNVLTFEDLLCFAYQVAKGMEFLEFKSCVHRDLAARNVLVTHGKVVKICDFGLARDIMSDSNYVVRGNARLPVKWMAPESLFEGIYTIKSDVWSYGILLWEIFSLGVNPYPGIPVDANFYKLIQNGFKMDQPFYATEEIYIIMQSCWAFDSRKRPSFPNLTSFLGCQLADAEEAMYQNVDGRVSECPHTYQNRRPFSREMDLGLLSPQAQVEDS
# [7] = Brain protein binding study; type: in vitro ADME; settings: mouse brain homogenate, equilibrium dialysis 4 hours
# Experimental: On the day of experiment, brain homogenate was thawed in water bath at room temperature and then incubated at 37° C. for 10 min before use. Pretreat the dialysis membrane according to the manufacturer's instructions: the dialysis membrane strips were soaked in ultra pure water at room temperature for approximately 1 hr. After that, each membrane strip that contains 2 membranes was separated and soaked in ethanol:water (20:80 v:v) for approximately 20 min, after which it was ready for use or was stored in the solution at 2-8° C. for up to 1 month. Prior to the experiment, the membrane was rinsed and soaked for 20 min in ultra pure water for use. Then working solutions (400 μM) of test compound and control compound were prepared. Aliquots of working solutions (3 μL) were spiked into blank matrix (597 μL) to achieve final concentrations and mixed thoroughly. Aliquots of 50 μL loading matrix containing test compound or control compound in triplicate was transferred to Sample Collection Plate, respectively. The samples were matched with opposite blank buffer to obtain a final volume of 100 μL with a volume ratio of matrix:Dialysis Buffer (1:1, v:v) in each well immediately. The stop solution was added to these T0 samples of test compound and control compound. The plate was sealed and shaked at 800 rpm for 10 min. Then these T0 samples were stored at 2-8° C. pending further process along with other post-dialysis samples. The dialysis instrument was assembled following manufacture's instructions. An aliquot of 100 μL of the loading matrix containing test compound or control compound was transferred to the donor side of each dialysis well in triplicate and 100 μL of the Dialysis Buffer was loaded to the receiver side of the well. Then the plate was rotated at approximately 100 rpm in a humidified incubator with 5% CO2 at 37±1° C. for 4 hours. At the end of the dialysis, aliquots of 50 μL samples from the buffer side and matrix side of the dialysis device were taken into new 96-well plates (Sample Collection Plates). An equal volume of opposite blank matrix (buffer or matrix) in each sample was added to reach a final volume of 100 μL with volume ratio of matrix:Dialysis Buffer at 1:1 (v:v) in each well. All samples were further processed by protein precipitation for LC/MS/MS analysis.
# [8] = test system: human iPSC-derived microglia (hiPSC-MG); assay: hiPSC-MG survival (Presto-Blue viability); type: cell-based; settings: 48 h treatment; for hiPSC-MG survival: FIG. 7B
# [9] = test system: Ba/F3_CSF-1R (stably expressing human CSF-1R kinase); assay: Cell proliferation assay, Ba/F3_CSF-1R; type: cell-based; settings: BaF3, 72 h
# [10] = EOC2 cells, 72 hours treatment, read-out: ECO2 EC50
# [11] = Ba/F3_CSF-1R cells, 72 hours treatment, read-out: CSF-1R BaF3 EC50
# [12] = read-out: CSF-1R BaF3 EC50 (nM)
SMILES,IC50 [1],cKit Fold [1],IC50 ([2]; Table 2),IC50 ([2]; Table 3),"EC50 [3, 10]",primary rat microglia survival [4],"fraction unbound at 4 h, 2 µM [5]",IC50 [6],FLT3 Fold [6],BPB-mouse (Bound) (%) [7],hiPSC-MG survival IC50 compared with BLZ945 [8],"IC50 ([8]; Homo sapiens, Microglia)","EC50 [9, 11]",EC50 ([3]; read-out: ECO2 EC50 (nM)),hiPSC-MG survival [8],"EC50 [9, 12]"
"COc1ccc(COc2ncc(Cc3ccnc4cc(OC)cnc34)cc2OC)nc1 [Example 16, 3-methoxy-8-((5-methoxy-6-((5-methoxypyridin-2-yl)methoxy)pyridin-3-yl)methyl)-1,5-naphthyridine]",881 nM,>100 fold,2.1 nM,2.1 nM,39.2 nM,dose-dependent inhibition of primary rat microglia survival,0.0063,> 1000 nM,>100 fold,98.10%,lower than that of BLZ945,31.5 nM,61.7 nM,–,–,–
"COc1cnc2c(Cc3cnc(OCc4cc5n(n4)CCOC5)c(OC)c3)ccnc2c1 [Example 73, 2-(((3-methoxy-5-((7-methoxy-1,5-naphthyridin-4-yl)methyl)pyridin-2-yl)oxy)methyl)-6,7-dihydro-4H-pyrazolo[5,1-c][1,4]oxazine]",> 1000 nM,>100 fold,3.3 nM,3.3 nM,–,dose-dependent inhibition of primary rat microglia survival,0.01,> 1000 nM,>100 fold,95.5%,lower than that of BLZ945,–,–,47.5 nM,dose-dependent inhibition of hiPSC-MG survival,73.1 nM
COc1ccc(COc2ncc(Cc3ccnc4cc(N5CCN(C)CC5)cnc34)cc2OC)nc1 [Example 116],> 1000 nM,>100 fold,3 nM,3 nM,10 nM,–,0.042,> 1000 nM,>100 fold,95.5%,–,–,33.8 nM,–,–,–
"COc1ccc(COc2ncc(Cc3ccnc4cc(-c5ccn(C)n5)cnc34)cc2OC)nc1 [Example 134, 8-((5-methoxy-6-((5-methoxypyridin-2-yl)methoxy)pyridin-3-yl)methyl)-3-(1-methyl-1H-pyrazol-3-yl)-1,5-naphthyridine]",–,–,6.6 nM,6.6 nM,5.5 nM,dose-dependent inhibition of primary rat microglia survival,0.008,–,–,98.8%,lower than that of BLZ945,–,–,–,dose-dependent inhibition of hiPSC-MG survival,7.1 nM
"COc1cnc2c(Cc3cnc(OCc4cc5n(n4)C[C@H](OC)C5)c(OC)c3)ccnc2c1 [Example 136, (R)-3-methoxy-8-((5-methoxy-6-((5-methoxy-5,6-dihydro-4H-pyrrolo[1,2-b]pyrazol-2-yl)methoxy)pyridin-3-yl)methyl)-1,5-naphthyridine]",> 1000 nM,>100 fold,5 nM,5 nM,–,dose-dependent inhibition of primary rat microglia survival,0.005,–,–,97.3%,–,–,–,94.8 nM,dose-dependent inhibition of hiPSC-MG survival,66.2 nM
